The species named for one data set is Mus musculus. Kind of data set: Toxicity in Mus musculus (mouse) assessed as irritation. As to conditions: in vivo. In kind it is organism-based.
In data set [1] the test system is Pseudomonas aeruginosa. Briefly: Antibacterial activity against Pseudomonas aeruginosa at 100 ug/ml by agar cup-plate method. Format: functional. As to conditions: read-out: IZ.
The test system of data set [2] is Pseudomonas. Kind of data set: Antibacterial activity against […] at 100 ug/ml by agar cup-plate method. Format: functional. As to conditions: read-out: IZ.
Data set [3] relates to Pseudomonas aeruginosa. Kind of data set: Antibacterial activity against Pseudomonas aeruginosa after 24 hr by broth dilution method. In kind it is functional.
For data set [4], the system named is Staphylococcus aureus. Briefly: Antibacterial activity against Staphylococcus aureus after 24 hr by broth dilution method. Format: functional. A general note: Broth dilution looks for growth in wells or tubes with falling amounts of substance.
Data set [5] relates to Escherichia coli. Briefly: Antibacterial activity against Escherichia coli at 100 ug/ml by agar cup-plate method. Format: functional. As to conditions: read-out: IZ.
Data set [6] has as its system Staphylococcus aureus. Briefly: Antibacterial activity against Staphylococcus aureus at 100 ug/ml by agar cup-plate method. In kind it is functional. As to conditions: read-out: IZ.
Data set [7] concerns Pseudomonas. Briefly: Antibacterial activity against […] after 24 hr by broth dilution method. In kind it is functional.
Data set [8] relates to Escherichia coli. Kind of data set: Antibacterial activity against Escherichia coli after 24 hr by broth dilution method. In kind it is functional.

Converted amounts (≈) assume the structure as drawn.

Activity, zone of inhibition and MIC data for eleven molecules are collected here from ChEMBL document CHEMBL3045543, “Predictions and correlations of structure activity relationship of some aminoantipyrine derivatives on the basis of theoretical and experimental ground” (Med Chem Res, 2012).

As usually defined, the MIC is the lowest concentration found to suppress growth. A high value points to a need for much substance.

For the molecule `Cc1c(/N=C/c2ccccc2O)c(=O)n(-c2ccccc2)n1C`, the Activity entry in the data set filed under Mus musculus was “Non-toxic”. For the same molecule, the zone of inhibition at 100 µg/mL in the data set with Pseudomonas aeruginosa [1] is 10 mm; in the data set with Pseudomonas [2], > 15 mm; in the data set on Escherichia coli [5], > 15 mm; in the data set on Staphylococcus aureus [6] it was > 15 mm. The MIC in the data set on Pseudomonas aeruginosa [3] stood at 100 µg/mL (≈ 325 µM); in the data set with Staphylococcus aureus [4], 50 µg/mL (≈ 163 µM); against Pseudomonas [7], 75 µg/mL (≈ 244 µM); against Escherichia coli [8], 75 µg/mL (≈ 244 µM).
As for `CC1(C)S[C@@H]2[C@H](NC(=O)[C@H](N)c3ccccc3)C(=O)N2[C@H]1C(=O)O` [AMPICILLIN], in the data set filed under Mus musculus, the Activity result is “Non-toxic”. Moreover, the zone of inhibition at 100 µg/mL with Pseudomonas aeruginosa [1] was > 15 mm; in the data set on Pseudomonas [2], 10 mm; with Escherichia coli [5], 10 mm; in the data set on Staphylococcus aureus [6], > 15 mm. Besides, the MIC with Pseudomonas aeruginosa [3], against Staphylococcus aureus [4], with Pseudomonas [7] and against Escherichia coli [8] was 25 µg/mL (≈ 71.5 µM) throughout.
With `[H]/N=C(/N)N[C@H]1[C@H](O)[C@@H](O)[C@H](O[C@@H]2O[C@@H](C)[C@](O)(C=O)[C@H]2O[C@@H]2O[C@@H](CO)[C@H](O)[C@@H](O)[C@@H]2NC)[C@@H](N/C(N)=N\[H])[C@@H]1O` [STREPTOMYCIN], the Activity entry in the data set filed under Mus musculus was “Non-toxic”. The zone of inhibition at 100 µg/mL in the data set on Pseudomonas aeruginosa [1], in the data set with Pseudomonas [2], in the data set on Escherichia coli [5] and in the data set with Staphylococcus aureus [6] was > 15 mm each time.
Turning to `Cc1c(/N=C/c2cccc([N+](=O)[O-])c2)c(=O)n(-c2ccccc2)n1C`, the Activity result in the data set listed under Mus musculus was “Non-toxic”. The zone of inhibition at 100 µg/mL with Pseudomonas aeruginosa [1] is < 5 mm; with Pseudomonas [2], < 5 mm; with Escherichia coli [5], 5 mm; in the data set with Staphylococcus aureus [6] it was 5 mm.
As for `Cc1c(/N=C/c2ccccc2Cl)c(=O)n(-c2ccccc2)n1C`, in the data set listed under Mus musculus, the Activity entry is given as “Non-toxic”. Moreover, the zone of inhibition at 100 µg/mL in the data set with Pseudomonas aeruginosa [1], in the data set on Pseudomonas [2], with Escherichia coli [5] and with Staphylococcus aureus [6] was > 15 mm each time. In addition, the MIC with Pseudomonas aeruginosa [3] is 100 µg/mL (≈ 307 µM); against Staphylococcus aureus [4], 75 µg/mL (≈ 230 µM); against Pseudomonas [7], 100 µg/mL (≈ 307 µM); against Escherichia coli [8], 100 µg/mL (≈ 307 µM).
`Cc1c(/N=C/c2ccccc2)c(=O)n(-c2ccccc2)n1C`: the Activity entry in the data set filed under Mus musculus is given as “Non-toxic”. Moreover, the zone of inhibition at 100 µg/mL in the data set on Pseudomonas aeruginosa [1] was < 5 mm; in the data set on Pseudomonas [2] it was 10 mm; in the data set on Escherichia coli [5], < 5 mm; in the data set on Staphylococcus aureus [6], > 15 mm.
Take `Cc1c(/N=C/c2ccc(Cl)cc2)c(=O)n(-c2ccccc2)n1C`: the Activity entry in the data set listed under Mus musculus is given as “Non-toxic”. For the same molecule, the zone of inhibition at 100 µg/mL is 5 mm with Pseudomonas aeruginosa [1], < 5 mm with Pseudomonas [2], < 5 mm in the data set on Escherichia coli [5] and 10 mm with Staphylococcus aureus [6].
For `Cc1c(/N=C/c2ccco2)c(=O)n(-c2ccccc2)n1C`, the Activity result in the data set listed under Mus musculus is reported as “Non-toxic”. Moreover, the zone of inhibition at 100 µg/mL with Pseudomonas aeruginosa [1], in the data set on Pseudomonas [2], in the data set with Escherichia coli [5] and in the data set with Staphylococcus aureus [6] was > 15 mm each time. For the same molecule, the MIC came out at 75 µg/mL (≈ 267 µM) against Pseudomonas aeruginosa [3], 50 µg/mL (≈ 178 µM) with Staphylococcus aureus [4], 75 µg/mL (≈ 267 µM) in the data set with Pseudomonas [7] and 75 µg/mL (≈ 267 µM) with Escherichia coli [8].
For the molecule `COc1ccc(/C=N/c2c(C)n(C)n(-c3ccccc3)c2=O)cc1`, the Activity entry in the data set listed under Mus musculus was “Non-toxic”. The zone of inhibition at 100 µg/mL with Pseudomonas aeruginosa [1] is < 5 mm; in the data set with Pseudomonas [2], 10 mm; in the data set with Escherichia coli [5], 5 mm; in the data set on Staphylococcus aureus [6], 5 mm.
`Cc1c(/N=C/c2ccccc2[N+](=O)[O-])c(=O)n(-c2ccccc2)n1C`: in the data set filed under Mus musculus, the Activity result is recorded as “Non-toxic”. Further, the zone of inhibition at 100 µg/mL in the data set with Pseudomonas aeruginosa [1] is 5 mm; in the data set with Pseudomonas [2], < 5 mm; in the data set on Escherichia coli [5], < 5 mm; in the data set on Staphylococcus aureus [6] it was 10 mm.
As to `Cc1c(/N=C/c2ccc(O)cc2)c(=O)n(-c2ccccc2)n1C`, in the data set filed under Mus musculus, the Activity result is on record as “Non-toxic”. Moreover, the zone of inhibition at 100 µg/mL in the data set with Pseudomonas aeruginosa [1] is 5 mm; in the data set on Pseudomonas [2] it was < 5 mm; in the data set with Escherichia coli [5], 5 mm; in the data set on Staphylococcus aureus [6], 10 mm.
